Molecules are shown by their SMILES. Where a name gives a salt, the structure may show the parent alone.

For the first series, the system named is IL-1-induced chondrocytic chondrolysis. Description: Modulation of the IL-1-induced chondrocytic chondrolysis (chondrolysis compensation). The series is classed as cell-based, bulls. The conditions noted are these: stimulation factor = proteoglycan content with active compound / IL-1-treated control; interleukin-1 for 8 days, 35S-sulfate incorporation 24 hours; factor >1 = stimulation. The method, then:
Cartilage cells can maintain their characteristic cartilage matrix metabolism ex vivo in suitable cell or tissue culture, i.e. the controlled synthesis and degradation of the matrix macromolecules, over a period of several weeks to months. These processes can be chemically influenced. […] In both assays, the stimulating action of the test substance is expressed by a stimulation factor which is calculated from the quotient of the specific proteoglycan content under the active compound condition divided by the proteoglycan content under the control condition. In Experiment A, the control condition is the untreated control group and in experimental procedure B this is the interleukin-1 (IL-1)-treated control group. A factor=1 can thus identify no action, a factor of >1 points to a stimulation and a factor of <1 to an inhibitory action.
B) Modulation of the IL-1-induced Chondrocytic Chondrolysis (Chondrolysis Compensation)
Cell preparation was carried out as described under A), if cartilage tissue explants are used these are added directly to the enriched culture medium described above after stamping out cartilage disks of 4 mm diameter and a depth which includes the entire cartilage layer. After adaptation for 5 days, interleukin-1 is added to the medium, 8 units/well for the cell culture, 20 units/well for the tissue culture, and, over the treatment period of 8 days, likewise added again every second day on changing the medium. At the end of the experiments, 1 μCi of Na2^35SO4/well is added and the mixture is incubated for 24 hours. After removing the supernatant, the remaining gels or explants are broken down in the microtiter plates by repeated deepfreezing and thawing and extracted with 8 M guanidine hydrochloride. After centrifugation, the supernatant is separated on a PD10 Sephadex column into free and incorporated sulfate and the radioactivity of the samples, which is a measure of the amount of proteoglycan newly formed, is determined in a β counter.
`N#C/C(C(=O)Nc1ccc(C(F)(F)F)cc1)=C(/O)CC(=O)O` [Example 36]: the Chondrolysis compensation worked out at 1.8.
On the same count and under the same terms, in the case of `Cc1cc(NC(=O)/C(C#N)=C(\O)CC(O)c2ccccc2)ccc1Cl` (centres unmarked) [Example 13] it was 1.1.
Consider `CC(O)C/C(O)=C(\C#N)C(=O)Nc1ccc(Cl)cc1` (centres unmarked) [Example 8], for which the Chondrolysis compensation was determined as 2.1.
On the same count and under the same terms, with `CC(O)C/C(O)=C(\C#N)C(=O)NCc1ccccc1` (centres unmarked) [Example 6] the figure was 1.9.
Take `N#C/C(C(=O)Nc1ccc(C(F)(F)F)cc1)=C(/O)CC(O)c1cccs1` (centres unmarked) [Example 24]: the Chondrolysis compensation was 1.9.
The same measure, in the same setting: in the case of `CC(O)C/C(O)=C(\C#N)C(=O)NCCc1ccccc1` (centres unmarked) [Example 7] it was 1.3; in that of `CC(C)=CCC/C(C)=C/C(O)C/C(O)=C(\C#N)C(=O)Nc1ccc(C(F)(F)F)cc1` (centres unmarked) [Example 30], 1.3.
Same read-out and setting: with `C[C@@H](O)C/C(O)=C(\C#N)C(=O)Nc1ccc(C(F)(F)F)cc1` [Example 10a, N-(4-Trifluoromethylphenyl)-2-cyano-3,5-dihydroxyhex-2-enecarboxamide Lysinium Salt, R Isomer] the figure was 1.1; with `N#C/C(C(=O)Nc1ccc(C(F)(F)F)cc1)=C(/O)CC(O)C1CC1` (centres unmarked) [Example 33], 1.9; with `CC(C)(O)C/C(O)=C(\C#N)C(=O)NCc1ccccc1` [Example 3], 1.5.
Same read-out and setting: with `N#C/C(C(=O)Nc1ccc(C(F)(F)F)cc1)=C(/O)CC(O)c1ccc(OCc2ccccc2)cc1` (centres unmarked) [Example 15] the figure was 1.2; with `CCCCC(C)(O)C/C(O)=C(\C#N)C(=O)Nc1ccc(C(F)(F)F)cc1` (centres unmarked) [Example 31], 1.6.
In turn, `C[C@H](O)C/C(O)=C(\C#N)C(=O)Nc1ccc(C(F)(F)F)cc1` [Example 10b, N-(4-Trifluormethylphenyl)-2-cyano-3,5-dihydroxyhex-2-enecarboxamide Lysinium Salt, S-isomer] yielded a Chondrolysis compensation of 1.7.

Test system in another series: not given
Test: not given
Conditions: not given
`Cc1cc(NC(=O)/C(C#N)=C(\O)CC(O)c2ccccc2)ccc1Cl` (centres unmarked) [Example 13]: the melting point stood at 165 °C.
The same measure, in the same setting: with `N#C/C(C(=O)Nc1ccc(C(F)(F)F)cc1)=C(/O)CC(O)c1ccc(C(F)(F)F)cc1` (centres unmarked) [Example 17] the figure was 178 °C.
Same read-out and setting: in the case of `CC(O)C/C(O)=C(\C#N)C(=O)Nc1ccc(Cl)cc1` (centres unmarked) [Example 8] it was 152 °C.
On to `Cc1ccc(C(O)C/C(O)=C(\C#N)C(=O)Nc2ccc(C(F)(F)F)cc2)cc1` (centres unmarked) [Example 14], for which the melting point amounted to 180 °C.
`CC(O)C/C(O)=C(\C#N)C(=O)NCCc1ccccc1` (centres unmarked) [Example 7] showed a melting point of 91 °C.
Turning to `CC(O)C/C(O)=C(\C#N)C(=O)Nc1ccc(C(F)(F)F)cc1` (centres unmarked) (as salt: salt) [Example 37, N-(4-Trifluoromethylphenyl)-2-cyano-3,5-dihydroxyhex-2-carboxamide Lysinium Salt], the melting point lay in the range of 135 to 138 °C.
The same measure, in the same setting: in the case of `C[C@@H](O)C/C(O)=C(\C#N)C(=O)Nc1ccc(C(F)(F)F)cc1` (as salt: salt) [Example 10a, N-(4-Trifluoromethylphenyl)-2-cyano-3,5-dihydroxyhex-2-enecarboxamide Lysinium Salt, R Isomer] it was 156 °C.
Still for that read-out and setting: with `CC(C)=CCC/C(C)=C/C(O)C/C(O)=C(\C#N)C(=O)Nc1ccc(C(F)(F)F)cc1` (centres unmarked) [Example 30] the figure was 114 to 116 °C; with `N#C/C(C(=O)Nc1ccc(C(F)(F)F)cc1)=C(/O)CC(O)/C=C/c1ccccc1` (centres unmarked) [Example 25], 168 to 172 °C; with `N#C/C(C(=O)Nc1ccc(C(F)(F)F)cc1)=C(/O)CC(O)c1ccncc1` (centres unmarked) [Example 20], 203 °C.
Still for that read-out and setting: with `N#C/C(C(=O)Nc1ccc(Cl)cc1)=C(/O)CC(O)c1ccccc1` (centres unmarked) [Example 12] the figure was 178 °C.
As to `C[C@H](O)C/C(O)=C(\C#N)C(=O)Nc1ccc(C(F)(F)F)cc1` (as salt: salt) [Example 10b, N-(4-Trifluormethylphenyl)-2-cyano-3,5-dihydroxyhex-2-enecarboxamide Lysinium Salt, S-isomer], the melting point was 157 °C.
Molecule `Cc1ccc(C(O)C/C(O)=C(\C#N)C(=O)Nc2ccc(C(F)(F)F)cc2)cc1` (centres unmarked) [Example 11] yielded a melting point of 170 to 171 °C.

(Values after US6387934B1, “2-Cyano-3,5-dihydroxyhex-2-enecarboxamide derivatives” (Aventis Pharma Deutschland GmbH, priority 1996, dated 2002).)
